For one assay, the target named is T1, human FXR protein (Homo sapiens, UniProt Q96RI1).
T1 construct: purchased Invitrogen
As to the kind of experiment: FXR agonist binding ability: time-resolved fluorescence (LanthaScreen) FXR/coactivator assay. Type of assay: biochemical. The conditions noted are these: GST-labeled human FXR, fluorescein-labeled coactivator, TR-FRET. As for the experimental part:
FXR Agonist Binding Ability Evaluation of the activation effect of the compound of the present invention with regard to the binding of FXR to its co-stimulatory factor SRC-1 was conducted by using time-resolved analytical techniques. Protein: glutathione-S-transferase (GST)-labeled human FXR protein (Invitrogen) • 2. Coactivator: Fluorescein-labeled steroid receptor coactivator (SRC2-2) (Invitrogen) • 3. Detection reagent: LanthaScreen Time-Resolved Fluorescence Analysis Kit (Invitrogen) • 1. The compound was prepared into a 10 mM DMSO stock solution and stored in a −20° C. refrigerator for a long time. • 2. The compound was diluted to 1 mM before the experiment, and then the compound was diluted 3-fold to 10 concentration points using DMSO. Then use buffer G (Invitrogen, PV4553) to dilute these 10 concentration points by 50 times to become a working fluid. Add 10 μl of each working solution to each well of a 384-well plate. • 3. Prepare a human FXR protein solution (final concentration 20 nM) in chilled buffer G and add 5 μl of human FXR protein solution to each well of a 384-well plate. • 4. Prepare a mix of buffer G containing 2 μM fluorescein-labeled steroid receptor coactivator and 20 nM GST antibody. • 5. Add 5 μl of the mixture prepared in Step 4 to a 384-well plate. • 6. Centrifuge the 384-well plate at 1000 g for 1 minute. • 7. Incubate for 1 hour at room temperature in the dark. • 8. Read the 384-well plate at 520 nm and 495 nm on an Envision 2104 plate reader. • 9. Calculate the EC50 value of the activation effect of the compound.

A further assay addresses T2, hFXR-LBD-GAL4 (Homo sapiens, UniProt Q96RI1).
T2 construct: GAL4 (fusion partner); host or cells: HEK293T
T2 sequence (Q96RI1 262-486 limits assumed): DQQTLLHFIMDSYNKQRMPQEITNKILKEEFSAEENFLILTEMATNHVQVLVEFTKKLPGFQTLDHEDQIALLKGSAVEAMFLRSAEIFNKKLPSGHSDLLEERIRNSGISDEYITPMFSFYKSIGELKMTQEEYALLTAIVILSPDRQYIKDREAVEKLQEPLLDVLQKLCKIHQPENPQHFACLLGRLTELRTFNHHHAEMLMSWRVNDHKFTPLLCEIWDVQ
As to the kind of experiment: FXR agonist transactivation ability: luciferase reporter gene in HEK293T. The assay is classed as cell-based. The conditions noted are these: read-out: Cell activity. The method, then:
FXR Agonist Transactivation Ability
Evaluation of the ability of the compound of the present invention to promote FXR transactivation was conducted by using luciferase reporter gene expression technology.
• 1. Cell line: HEK293T (Invitrogen) • 2. Expression plasmid: pBIND-hFXR-LBD-GAL4 (Promega), pGL4.35-luciferase (Promega) • 3. Cell culture medium: 10% serum and penicillin/streptomycin double antibody in DMEM medium • 4. Detection reagent: Steady-Glo fluorescence detection system (Promega). • 5. Transfection reagent: TransIT-293 Transfection Reagent (MIRUS BIO)
• 1. The compound was prepared into a 10 mM DMSO stock solution and stored in a −20° C. refrigerator for a long time. • 2. Resuscitation HEK293T cells were seeded in 10 cm culture dishes at a concentration of 5.5×10^6 and incubated for 16 hours at 37° C. in a 5% CO2 incubator. • 3. Return the transfection reagent to room temperature before transfection. The Trans-IT solution was added dropwise to Opti-MEM, and mixed by inversion for 5 minutes; the expression plasmid was added, mixed by inversion, and incubated at room temperature for 20 minutes. • 4. Add the transfection mixture from Step 3 to the prepared 10 cm dish in Step 2 and incubate for 5-6 hours in a 5% CO2 incubator. • 5. Dilute the compound 3 folds to 10 concentration points using DMSO; add 25 nl of compound per well in a 384-well plate using an Echo 550 sonic pipette; add HEK293T cells to the 384-well plate at a concentration of 15,000 cells/well; 37° C. incubate for 16-20 hours in a 5% CO2 incubator. • 6. Add 25 μl of Steady-Glo Fluorescent Reagent to each well and read the fluorescence on an Envision 2104 plate reader. • 7. Calculate the EC50 value of the activation of the compound.
(A reporter such as luciferase makes a cellular process visible.)

Take `O=C(O)c1cccc(Oc2cccc3cc(OCc4c(-c5c(Cl)cccc5Cl)noc4C4CC4)ccc23)n1` [Compound 23, 6-((6-((5-cyclopropyl-3-(2,6-dichlorophenyl)isoxazol-4-yl)methoxy)naphthalen-1-yl)oxy)picolinic acid]: the values for the EC50 on human FXR protein and at hFXR-LBD-GAL4 were above 500 nM and above 1000 nM, respectively.

As for `O=C(O)c1cnc(Oc2ccc3cc(OCc4c(-c5c(Cl)cccc5Cl)noc4C4CC4)ccc3c2)s1` [Compound 4, 2-((6-((5-cyclopropyl-3-(2,6-dichlorophenyl)isoxazol-4-yl)methoxy)naphthalen-2-yl)oxy)thiazole-5-carboxylic acid], the EC50 is 50 to 500 nM on human FXR protein and above 1000 nM at hFXR-LBD-GAL4.

As for `O=C(O)c1ccc(Oc2ccc3cc(OCc4c(-c5c(Cl)cccc5Cl)noc4C4CC4)ccc3c2)nc1` [Compound 33], the EC50 at human FXR protein was 50 to 500 nM; on hFXR-LBD-GAL4, below 200 nM.

For the compound `O=C(O)c1ccc(Oc2ccc3cc(OCc4c(-c5c(Cl)cc(F)cc5Cl)noc4C4CC4)ccc3c2)nc1` [Compound 18], the values for the EC50 on human FXR protein and on hFXR-LBD-GAL4 were 50 to 500 nM and above 1000 nM, respectively.

`O=C(O)c1ccc(Oc2ccc3cc(OCc4c(-c5c(Cl)cccc5Cl)noc4C4CC4)ccc3c2)nc1Cl` [Compound 8, 2-chloro-6-((6-((5-cyclopropyl-3-(2,6-dichlorophenyl)isoxazol-4-yl)methoxy)naphthalen-2-yl)oxy)nicotinic acid]: the EC50 at human FXR protein is 50 to 500 nM; at hFXR-LBD-GAL4, 500 to 1000 nM.

As to `O=C(O)c1ccc(Oc2c(Cl)cc(Cl)c3cc(OCc4c(-c5c(Cl)cccc5Cl)noc4C4CC4)ccc23)nc1` [Compound 41, 6-((2,4-dichloro-6-((5-cyclopropyl-3-(2,6-dichlorophenyl)isoxazol-4-yl)methoxy)naphthalen-1-yl)oxy)nicotinic acid], the figures for the EC50 on human FXR protein and at hFXR-LBD-GAL4 were above 500 nM and above 1000 nM, respectively.

With `O=C(O)c1ccc(Oc2ccc3cc(OCc4c(-c5c(Cl)cccc5Cl)noc4C4CC4)ccc3c2)nn1` [Compound 2, 6-((6-((5-cyclopropyl-3-(2,6-dichlorophenyl)isoxazol-4-yl)methoxy)naphthalen-2-yl)oxy)pyridazine-3-carboxylic acid], the EC50 is 50 to 500 nM at human FXR protein and above 1000 nM at hFXR-LBD-GAL4.

With `O=C(O)c1cccnc1Oc1c(F)ccc2cc(OCc3c(-c4c(Cl)cccc4Cl)noc3C3CC3)ccc12` [Compound 48, 2-((6-((5-cyclopropyl-3-(2,6-dichlorophenyl)isoxazol-4-yl)methoxy)-2-fluoronaphthalen-1-yl)oxy)nicotinic acid], the EC50 is below 50 nM on human FXR protein and below 200 nM on hFXR-LBD-GAL4.

With `O=C(O)c1ccc(Oc2ccc3cc(OCc4c(-c5c(Cl)cccc5Cl)noc4C4CC4)ccc3c2F)nc1` [Compound 20, 6-((6-((5-cyclopropyl-3-(2,6-dichlorophenyl)isoxazol-4-yl)methoxy)-1-fluoronaphthalen-2-yl)oxy)nicotinic acid], the EC50 is 50 to 500 nM at human FXR protein and 500 to 1000 nM on hFXR-LBD-GAL4.

Regarding `O=C(O)c1cccnc1Oc1cccc2cc(OCc3c(-c4c(Cl)cccc4Cl)noc3C3CC3)ccc12` [Compound 35, 2-((6((5-cyclopropyl-3-(2,6-dichlorophenyl)isoxazol-4-yl)methoxy)naphthalen-1-yl)oxy)nicotinic acid], the EC50 on human FXR protein was below 50 nM; on hFXR-LBD-GAL4 it was below 200 nM.

With `COc1cc(Cl)c(-c2noc(C3CC3)c2COc2ccc3cc(Oc4ccc(C(=O)O)cn4)ccc3c2)c(Cl)c1` [Compound 19, 6-((6-((5-cyclopropyl-3-(2,6-dichloro-4-methoxyphenyl)isoxazol-4-yl)methoxy)naphthalen-2-yl)oxy)nicotinic acid], the EC50 on human FXR protein was above 500 nM; at hFXR-LBD-GAL4 it was above 1000 nM.

Turning to `O=C(O)c1ccnc(Oc2ccc3cc(OCc4c(-c5c(Cl)cccc5Cl)noc4C4CC4)ccc3c2)c1` [Compound 12, 2-((6-((5-cyclopropyl-3-(2,6-dichlorophenyl)isoxazol-4-yl)methoxy)naphthalen-2-yl)oxy)isonicotinic acid], the EC50 at human FXR protein is below 50 nM; on hFXR-LBD-GAL4 it was above 1000 nM.

As for `O=C(O)c1ncccc1Oc1cccc2cc(OCc3c(-c4c(Cl)cccc4Cl)noc3C3CC3)ccc12` [Compound 25, 3-((6-((5-cyclopropyl-3-(2,6-dichlorophenyl)isoxazol-4-yl)methoxy)naphthalen-1-yl)oxy)picolinic acid], the values for the EC50 on human FXR protein and on hFXR-LBD-GAL4 were 50 to 500 nM and above 1000 nM, respectively.

As for `Cc1nc(Oc2ccc3c(F)c(OCc4c(-c5c(Cl)cccc5Cl)noc4C4CC4)ccc3c2)ccc1C(=O)O` [Compound 37, 6-((6-((5-cyclopropyl-3-(2,6-dichlorophenyl)isoxazol-4-yl)methoxy)-5-fluoronaphthalen-2-yl)oxy)-2-methylnicotinic acid], the EC50 was 50 to 500 nM at human FXR protein and above 1000 nM at hFXR-LBD-GAL4.

`O=C(NS(=O)(=O)C1CC1)c1ccc(Oc2ccc3cc(OCc4c(-c5c(Cl)cccc5Cl)noc4C4CC4)ccc3c2)nc1` [Compound 6, 6((6((5-cyclopropyl-3-(2,6-dichlorophenyl)isoxazol-4-yl)methoxy)naphthalen-2-yl)oxy)-N-(cyclopropylsulfonyl)nicotinamide]: the EC50 at human FXR protein is 50 to 500 nM; at hFXR-LBD-GAL4, above 1000 nM.

On to `O=C(O)c1ccc(Oc2ccc3cc(OCc4c(-c5ccccc5OC(F)(F)F)noc4C4CC4)ccc3c2)nc1` [Compound 17], for which the EC50 at human FXR protein was above 500 nM; at hFXR-LBD-GAL4 it was above 1000 nM.

Consider `O=C(O)c1ccc(Oc2ccc3c(Cl)c(OCc4c(-c5c(Cl)cccc5Cl)noc4C4CC4)ccc3c2)nc1` [Compound 29, 6-((5-chloro-6-((5-cyclopropyl-3-(2,6-dichlorophenyl)-isoxazol-4-yl)methoxy)naphthalen-2-yl)oxy)nicotinic acid], for which the EC50 at human FXR protein was in the range of 50 to 500 nM; on hFXR-LBD-GAL4, 500 to 1000 nM.

Regarding `O=C(O)c1cnc(Oc2ccc3cc(OCc4c(-c5c(Cl)cccc5Cl)noc4C4CC4)ccc3c2)c(Cl)c1` [Compound 3, 5-chloro-6-((6-((5-cyclopropyl-3-(2,6-dichlorophenyl)isoxazol-4-yl)methoxy)naphthalen-2-yl)oxy)nicotinic acid], the EC50 on human FXR protein is above 500 nM; at hFXR-LBD-GAL4, above 1000 nM.

On to `Cc1cc(C(=O)O)cnc1Oc1ccc2cc(OCc3c(-c4c(Cl)cccc4Cl)noc3C3CC3)ccc2c1` [Compound 5, 6-((6-((5-cyclopropyl-3-(2,6-dichlorophenyl)isoxazol-4-yl)methoxy)naphthalen-2-yl)oxy)-5-methylnicotinic acid], for which the results for the EC50 on human FXR protein and on hFXR-LBD-GAL4 were above 500 nM and above 1000 nM, respectively.

Turning to `O=C(O)c1cccnc1Oc1ccc2cc(OCc3c(-c4c(Cl)cccc4Cl)noc3C3CC3)ccc2c1` [Compound 15, 2-((6-((5-cyclopropyl-3-(2,6-dichlorophenyl)isoxazol-4-yl)methoxy)naphthalen-2-yl)oxy)nicotinic acid], the EC50 at human FXR protein was 50 to 500 nM; on hFXR-LBD-GAL4 it was above 1000 nM.

`Cc1nc(Oc2ccc3cc(OCc4c(-c5c(Cl)cccc5Cl)noc4C4CC4)ccc3c2Cl)ccc1C(=O)O` [Compound 43, 6-((1-chloro-6-((5-cyclopropyl-3-(2,6-dichlorophenyl)isoxazol-4-yl)methoxy)naphthalen-2-yl)oxy)-2-methylnicotinic acid]: the EC50 lay within 50 to 500 nM on human FXR protein and 500 to 1000 nM on hFXR-LBD-GAL4.
